Source: ChEMBL document CHEMBL5357016, “Discovery of Novel PDEδ Autophagic Degraders: A Case Study of Autophagy-Tethering Compound (ATTEC)” (ACS Med Chem Lett, 2024)
Active and inactive are the calls of the source. The rule behind the calls is not given here.

How the values were obtained:
[1] = Drug localization in lysosome of human HeLa cells assessed as green fluorescence pretreated with compound for 2 hrs followed by probe administration and measured after 1.5 hrs by fluorescence imaging analysis; assay type: ADME, subcellular; conditions: 3.5 h
[2] = Drug uptake in lysosome of human HeLa cells assessed as drug fusion by measuring red fluorescence pretreated with compound for 2 hrs followed by probe administration and measured after 1.5 hrs by fluorescence imaging analysis; assay type: ADME, subcellular; conditions: 3.5 h
MIA PaCa-2 [3] = assay: Induction of apoptosis in human MIA PaCa-2 cells harboring KRAS mutant assessed as late apoptotic cells at 10 uM measured after 24 hrs by Annexin V-FITC/PI staining based flow cytometric analysis (Rvb= 10.56%); assay type: functional
MIA PaCa-2 [4] = assay: Antiproliferative activity against human MIA PaCa-2 cells harboring KRAS mutant assessed as reduction in cell proliferation incubated for 72 hrs by CCK-8 assay; conditions: MIA PaCa-2, 72 h
MIA PaCa-2 [5] = assay: Induction of apoptosis in human MIA PaCa-2 cells harboring KRAS mutant assessed as necrotic cells at 10 uM measured after 24 hrs by Annexin V-FITC/PI staining based flow cytometric analysis (Rvb= 0.3%); assay type: functional
CAPAN-1 = assay: Antiproliferative activity against human CAPAN-1 cells harboring KRAS mutant assessed as reduction in cell proliferation incubated for 72 hrs by CCK-8 assay; conditions: CAPAN-1, 72 h
MIA PaCa-2 [6] = assay: Induction of apoptosis in human MIA PaCa-2 cells harboring KRAS mutant assessed as necrotic cells at 1 uM measured after 24 hrs by Annexin V-FITC/PI staining based flow cytometric analysis (Rvb= 0.3%); assay type: functional
MIA PaCa-2 [7] = assay: Induction of apoptosis in human MIA PaCa-2 cells harboring KRAS mutant assessed as early apoptotic cells at 10 uM measured after 24 hrs by Annexin V-FITC/PI staining based flow cytometric analysis (Rvb= 4.62%); assay type: functional
MIA PaCa-2 [8] = assay: Induction of apoptosis in human MIA PaCa-2 cells harboring KRAS mutant assessed as early apoptotic cells at 1 uM measured after 24 hrs by Annexin V-FITC/PI staining based flow cytometric analysis (Rvb= 4.62%); assay type: functional
MIA PaCa-2 [9] = assay: Effect on PDEdelta mRNA expression in human MIA PaCa-2 cells measured after 24 hrs by RT-qPCR analysis; assay type: functional, cell-based
MIA PaCa-2 [10] = assay: Induction of apoptosis in human MIA PaCa-2 cells harboring KRAS mutant assessed as late apoptotic cells at 1 uM measured after 24 hrs by Annexin V-FITC/PI staining based flow cytometric analysis (Rvb= 10.56%); assay type: functional

Drug uptake [1] | Drug uptake [2] | IC50 (MIA PaCa-2 [4]) [nM] | SMILES | Activity (MIA PaCa-2 [3]) [%] | Activity (MIA PaCa-2 [5]) [%] | IC50 (CAPAN-1) [nM] | Activity (MIA PaCa-2 [6]) [%] | Activity (MIA PaCa-2 [7]) [%] | Activity (MIA PaCa-2 [8]) [%] | Activity (MIA PaCa-2 [9]) | Activity (MIA PaCa-2 [10]) [%]
Active | Active |  | O=C(COc1c(Br)cc(/C=C2\C(=O)Nc3ccc(I)cc32)cc1Br)NCCCOCCOCCOCCCNC(=S)Nc1ccc2c(c1)C(=O)OC21c2ccc(O)cc2Oc2cc(O)ccc21 |  |  |  |  |  |  |  | 
 |  | 1400 | Cc1ccc(-n2nc3c(=O)n(CCCC(=O)NCCCCCCNC(=O)COc4c(Br)cc(/C=C5\C(=O)Nc6ccc(I)cc65)cc4Br)nc(C)c3c2C)cc1 | 23.49 | 11.64 | 800 | 0.43 | 9.76 | 3.8 | inactive | 18.43
 |  | 25000 | Cc1ccc(-n2nc3c(=O)n(CCCC(=O)NCCOCCOCCNC(=O)COc4c(Br)cc(/C=C5\C(=O)Nc6ccc(I)cc65)cc4Br)nc(C)c3c2C)cc1 |  |  | 3500 |  |  |  |  | 
